{
  "source": "patent US10865376B2",
  "about": "“Method for detecting the presence or absence of biological particles” (bioMérieux, priority 2014, dated 2020)",
  "format_in_all_cases": "cell-based",
  "key": {"[1]": {"system": "Escherichia coli (ATCC 35218)", "assay": "Detection of the inhibition zone around a support impregnated with antibiotic, by ombroscopy / micro-ombroscopy", "description": "(§1) In general terms, referring to FIG. 2, the method of detection 100 of the present invention comprises a first step 101 of seeding the culture medium 2 with an extract of biological particles 1. The extract of biological particles 1 is for example a raw sample of biological particles 1 taken from the patient directly. In this case the raw sample undergoes a preculture phase for isolating strains of biological particles 1 present, in the case of a sample comprising a diversity of biological particles 1, and increase of the biological particles 1 selected and isolated. […] The sample of biological particles 1 has a biomass of biological particles 1 that is sufficient to be analyzed validly, such as a standard at a concentration of 0.5 McFarland. The extract of biological particles 1 is for example from urine, blood, cerebrospinal fluid or a similar biological fluid.\n(§2) The culture medium 2 is for example flooded with the extract of biological particles 1, or the culture medium 2 is seeded with biological particles 1 by swabbing, or the culture medium 2 receives the biological particles by spreading them using a rake. Then, the Petri dish 4 is agitated transversely to distribute the extract of biological particles 1 as uniformly as possible on the culture medium 2, and then any supernatant is removed from the Petri dish 4. The first step of seeding 101 may have features different from those described above without departing from the rules of the present invention.\nThe method of detection 100 then comprises a second step 102 of receiving at least one dose of the chemical agent 3 at the initial time point T0, for example starting from placement of at least one impregnated support 5 inoculated with the chemical agent 3 on a receiving zone R of the impregnated support 5 on the culture medium 2.\nThe impregnated support 5 is for example a disk impregnated with the chemical agent 3, the disk having the overall conformation of a thin slice of a cylinder. The disk comprises an amount of chemical agent 3 that is homogeneous overall in its volume. […]"}, "[2]": {"system": "Staphylococcus aureus (ATCC 25923)", "assay": "Minimum inhibitory concentration calculated from the normed representation (ombroscopy image plus ruler)", "conditions": "starting from six hours, FIG. 28", "description": "(§3) The impregnated support 5 is for example also a slender strip, of overall rectangular conformation. The strip comprises for example a concentration of chemical agent 3 that follows an increasing concentration gradient from one short edge to an opposite short edge of the strip. In FIG. 19, the fifth processing step 105 comprises a second phase X2 of taking a control photograph 7' of a ruler 15 arranged on the culture medium 2 contained in the Petri dish 4, the second phase X2 also being carried out by the detecting device 12. Then the fifth processing step 105 comprises a third phase X3 of superimposing the image 7 and the control photograph 7' and more particularly of their respective receiving zone R to form a normed representation 7'' of the culture medium 2. In FIG. 20, the fifth processing step 105 comprises a fourth phase X4 of localization of a reference mark 16 of the ruler 15. In the example shown, the reference mark 16 is the indication “256” on the ruler 15, and the reference mark 16 may consist of some other and relatively any indication. The reference mark 16 comprises Cartesian coordinates […] and […]. In FIGS. 21 to 25, the fifth processing step 105 comprises a fifth phase X5 of processing the normed representation 7''. In FIG. 21, the fifth phase X5 comprises at least one smoothing operation for homogenizing the normed representation 7''. […]"}, "[3]": {"system": "Escherichia coli (ATCC 25922)", "assay": "Minimum inhibitory concentration calculated from the normed representation (ombroscopy image plus ruler)", "conditions": "starting from six hours, FIGS. 26 and 27", "description": "as §3"}, "[4]": {"system": "Escherichia coli (ATCC 35218)", "assay": "Minimum inhibitory concentration / inhibition zone from the normed representation (ombroscopy image plus ruler)", "description": "as §3"}, "[5]": {"system": "Escherichia coli (ATCC 25922)", "assay": "Detection of the inhibition zone around a support impregnated with antibiotic, by micro-ombroscopy", "conditions": "micro-ombroscopy (FIG. 10 device), detection time TX of two hours", "description": "as §1\nas §2, with “The first step of seeding 101 may have features different from those described above without departing from the rules of the present invention.” left out"}},
  "data": [
    {"smiles": "CC1(C)S[C@@H]2[C@H](NC(=O)[C@H](N)c3ccccc3)C(=O)N2[C@H]1C(=O)O", "note": "[ampicillin]", "values": [
      {"measurement": "response of the biological particles to the chemical agent (sensitivity / resistance)", "setting": "[1]; micro-ombroscopy (FIG. 10 device), detection time TX of four hours", "result": "resistance"},
      {"measurement": "response of the biological particles to the chemical agent (sensitivity / resistance)", "setting": "[1]; ombroscopy (FIG. 9 device), identifiable starting from four hours, images up to twenty-four hours", "result": "resistance"},
      {"measurement": "presence or absence of inhibition zone", "setting": "[1]; ombroscopy (FIG. 9 device), starting from four hours", "result": "no inhibition zone is detected"},
      {"measurement": "response characterized from the calculated minimum concentration MIC", "setting": "[2]", "result": "sensitive"},
      {"measurement": "response characterized from the calculated minimum concentration MIC", "setting": "[3]", "result": "sensitive"},
      {"measurement": "response from the normed representation", "setting": "[4]; FIG. 29, based on absence of a first inhibition zone Z1", "result": "resistant"},
      {"measurement": "response from the normed representations, according to EUCAST", "setting": "[4]; FIG. 30", "result": "resistant"},
      {"measurement": "response of the biological particles to the chemical agent (sensitivity / resistance)", "setting": "[5]", "result": "sensitivity"}
    ]}
  ]
}
